The values below are quoted from earlier work in US20080182823A1, “POLYMER-LINKED-BIOPHOSPHONATE INHALANT FORMULATIONS AND METHODS FOR USING THE SAME” (priority 2007, published 2008).

In the series the test system is antral mucosa. The settings on record: rat models; Lichtenberger et al., Dig. Dis. Sci. 45(9):1792-1801, 2000.

Regarding `NCCCC(O)(P(=O)(O)O)P(=O)(O)O` [alendronate, (4-amino-1-hydroxybutylidene)-bis-phosphonate], the antral mucosal injury entry is listed as “cause antral mucosal injury”.
As for `O=P(O)(O)C(O)(Cc1cccnc1)P(=O)(O)O` [risedronate, [1-Hydroxy-2-(3-pyridinyl)-ethylidine] bis-phosphonate], the antral mucosal injury entry is on record as “cause antral mucosal injury”.
